Measurements taken from US20240199692A1 (priority 2019, published 2024).
Where two headings read alike, the source gives them in different places. *1 amine or outer side, *2 acyl side, *3 side chain or, on linkers, in order; H or OH if unused. Where a SMILES comes first, the peptide text is derived from it. [ ]: non-standard residue; d: D form. The star is where a group is joined. PhSO2(4-NHCOPh(4-CONH2)) = NC(=O)c1ccc(C(=O)Nc2ccc(S(=O)(=O)*)cc2)cc1; Phenylsulfonyl(4-anisamido) = COc1ccc(C(=O)Nc2ccc(S(=O)(=O)*)cc2)cc1; Benzoyl(4-(4-EtNHCO-PhO)) = CCNC(=O)c1ccc(Oc2ccc(C(=O)*)cc2)cc1; Benzoyl(4-O-C6H4-4-CONHMe) = CNC(=O)c1ccc(Oc2ccc(C(=O)*)cc2)cc1; X1 = O=C(Nc1ccc(S(=O)(=O)*)cc1)c1ccc(OC(F)(F)F)cc1; X17 = CC(=O)Nc1ccc(-c2ccc(S(=O)(=O)*)cc2)cc1; Benzoyl(4-OPh) = O=C(c1ccc(Oc2ccccc2)cc1)*; d(γGlu) = O=C(O)[C@@H](CCC(=O)[*:2])N[*:1]; d(βAsp) = O=C(O)[C@@H](CC(=O)[*:2])N[*:1]; Pro(4S-NH2) = N[C@@H]1CN[C@H](C(=O)O)C1; X5 = O=S(=O)(c1ccc(-c2ccc(CO)cc2)cc1)*; NMeI = CC[C@H](C)[C@H](NC)C(=O)O; NMeE = CN[C@@H](CCC(=O)O)C(=O)O; NMeD = CN[C@@H](CC(=O)O)C(=O)O; β3hP = O=C(O)C[C@@H]1CCCN1; Orn = NCCC[C@H](N)C(=O)O; Dab = NCC[C@H](N)C(=O)O; Dap = NC[C@H](N)C(=O)O; Ahx = NCCCCCC(=O)O; Ava = NCCCCC(=O)O; GABA = NCCCC(=O)O

Legend:
[1] = biological target: human MMP13 (Homo sapiens, UniProt P45452); assay: Inhibitory effects on human MMP13, enzyme assay; format: biochemical; details: Test Example 8
Description: The human MMP13 activated through the reaction was poured into a 96-well microplate to reach a final concentration of 5 ng/mL. […] Then, MOCAc-[…] was added to reach a final concentration of 6 μmol/L, and enzymatic reaction was initiated.

[2] = biological target: T1, MMP2 (Homo sapiens, UniProt P08253); assay: Inhibitory effects on human MMP2 (Method 1), enzyme assay with MOCAc-Pro-Leu-Gly-Leu-A2pr(Dnp)-Ala-Arg-NH2 substrate, 96-well; format: biochemical
T1 sequence (P08253 110-660): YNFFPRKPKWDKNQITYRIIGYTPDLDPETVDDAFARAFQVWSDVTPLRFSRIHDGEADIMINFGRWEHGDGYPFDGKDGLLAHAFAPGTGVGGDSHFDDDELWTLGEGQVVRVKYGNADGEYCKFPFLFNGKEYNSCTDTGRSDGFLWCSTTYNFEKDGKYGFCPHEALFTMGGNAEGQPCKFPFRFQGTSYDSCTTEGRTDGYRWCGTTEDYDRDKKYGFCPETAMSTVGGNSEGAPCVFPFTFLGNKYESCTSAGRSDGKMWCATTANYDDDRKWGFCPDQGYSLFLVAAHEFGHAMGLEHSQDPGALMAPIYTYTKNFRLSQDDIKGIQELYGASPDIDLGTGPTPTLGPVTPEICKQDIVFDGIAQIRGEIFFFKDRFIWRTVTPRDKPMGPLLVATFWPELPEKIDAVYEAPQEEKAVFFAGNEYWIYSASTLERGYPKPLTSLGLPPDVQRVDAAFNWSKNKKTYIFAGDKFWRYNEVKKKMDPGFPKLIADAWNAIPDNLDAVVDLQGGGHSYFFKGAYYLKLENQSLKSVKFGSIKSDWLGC
Description: In a reaction solution [50 mmol/L Tris-HCl (pH 7.5), 150 mmol/L NaCl, 10 mmol/L CaCl2, 0.05% Brij L23], 100 μg/mL human recombinant MMP2 enzyme and 1 mmol/L 4-Aminophenylmercuric acetate were mixed together, and reacted at 37° C. for 60 minutes. The human MMP2 activated through the reaction was poured into a 96-well microplate to reach a final concentration of 0.7 or 7 ng/mL.

[3] = biological target: human MMP12 (Homo sapiens, UniProt P39900); assay: Inhibitory effects on human MMP12, enzyme assay; format: biochemical
[4] = biological target: T1, MMP2; details: reported, see NPTL 19; cited from earlier work
[5] = biological target: T1, MMP2; assay: Inhibitory effects on human MMP2 (Method 2), enzyme assay with MOCAc-Pro-Leu-Gly-Leu-A2pr(Dnp)-Ala-Arg-NH2 substrate, 384-well; format: biochemical; details: Test Example No. 1-2 (Method 2, 384-well microplate)
[6] = Test Example No. 1-1 (Method 1, 96-well microplate), read-out: Human MMP2, IC50
[7] = Test Example 7, read-out: Human MMP12, IC50

human MMP12, sequence (P39900 106-470): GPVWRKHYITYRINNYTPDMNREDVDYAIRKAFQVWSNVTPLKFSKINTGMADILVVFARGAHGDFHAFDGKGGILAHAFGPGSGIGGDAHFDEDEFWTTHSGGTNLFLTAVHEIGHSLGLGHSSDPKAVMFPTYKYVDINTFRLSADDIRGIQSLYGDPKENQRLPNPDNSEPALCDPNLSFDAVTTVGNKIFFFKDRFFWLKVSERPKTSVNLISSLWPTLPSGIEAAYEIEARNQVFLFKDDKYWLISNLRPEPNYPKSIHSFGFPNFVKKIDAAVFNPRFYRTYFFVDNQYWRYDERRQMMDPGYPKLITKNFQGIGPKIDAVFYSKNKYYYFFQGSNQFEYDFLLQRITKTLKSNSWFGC

Molecule	IC50 [2, 6] [nM]	further results
CC[C@H](C)[C@@H](C(=O)N1CCC[C@H]1CC(N)=O)N(C)C(=O)[C@H](CC(C)C)NC(=O)[C@H](CCN)NC(=O)CC[C@@H](NS(=O)(=O)c1ccc(NC(=O)c2ccc(OC(F)(F)F)cc2)cc1)C(=O)O [Compound 701] ({X1-d(γGlu)}-[Dab]L[NMeI][β3hP]-NH2; N-terminus assumed)	0.27	IC50 [1]: 116 nM; IC50 [3, 7]: 169 nM
COc1ccc(C(=O)Nc2ccc(S(=O)(=O)N[C@H](CC(=O)N[C@@H](CN)C(=O)N[C@@H](CC(C)C)C(=O)N(C)[C@@H](CCC(=O)O)C(=O)N3CCC[C@H]3CC(N)=O)C(=O)O)cc2)cc1 [Compound 691] ({Phenylsulfonyl(4-anisamido)-d(βAsp)}-[Dap]L[NMeE][β3hP]-NH2; N-terminus assumed)	0.065	IC50 [1]: 142 nM; IC50 [3, 7]: 101 nM
IIe-Ser-Tyr-Gly-Asn-Asp-Ala-Leu-Met-Pro [APP-IP]	–	MMP2-inhibitory effect [4]: selective MMP2-inhibitory effect
CC(C)C[C@H](NC(=O)[C@@H]1C[C@H](N)CN1C(=O)CC[C@@H](NS(=O)(=O)c1ccc(NC(=O)c2ccc(C(N)=O)cc2)cc1)C(=O)O)C(=O)N(C)[C@@H](CCC(=O)O)C(=O)NCCCCC(N)=O [Compound 1, N-[4-(4-carbamoylbenzamido)benzene-1-sulfonyl]-D-γ-glutamyl-(4S)-4-amino-L-prolyl-L-1 eucyl-N-(5-amino-5-oxopentyl)-N^2-methyl-L-α-glutamine]	0.22	IC50 [1]: 240 nM; IC50 [3]: 253 nM
CC[C@H](C)[C@@H](C(=O)NCCCCC(N)=O)N(C)C(=O)[C@H](CC(C)C)NC(=O)[C@@H]1C[C@H](N)CN1C(=O)CC[C@@H](NS(=O)(=O)c1ccc(NC(=O)c2ccc(C(N)=O)cc2)cc1)C(=O)O [Compound 9]	0.29	IC50 [1]: 250 nM; IC50 [3, 7]: 160 nM
CC(C)C[C@H](NC(=O)[C@@H]1C[C@H](N)CN1C(=O)CC[C@@H](NS(=O)(=O)c1ccc(NC(=O)c2ccc(C(N)=O)cc2)cc1)C(=O)O)C(=O)N(C)[C@@H](CCC(=O)O)C(=O)N[C@H](CCCNC(=N)N)C(N)=O [Compound 29] ({PhSO2(4-NHCOPh(4-CONH2))-d(γGlu)}-[Pro(4S-NH2)]L[NMeE][dR]-NH2; C-terminus assumed)	–	IC50 [5]: 0.14 nM
CC[C@H](C)[C@@H](C(=O)N1CCC[C@H]1CC(N)=O)N(C)C(=O)[C@H](CC(C)C)NC(=O)[C@H](CCN)NC(=O)C[C@@H](NS(=O)(=O)c1ccc(-c2ccc(CO)cc2)cc1)C(=O)O [Compound 642] ({X5-d(βAsp)}-[Dab]L[NMeI][β3hP]-NH2; N-terminus assumed)	1.6	–
CC[C@H](C)[C@@H](C(=O)N1CCC[C@H]1CC(N)=O)N(C)C(=O)[C@H](CC(C)C)NC(=O)[C@H](C)NC(=O)C[C@@H](NS(=O)(=O)c1ccc(-c2ccc(NC(C)=O)cc2)cc1)C(=O)O [Compound 636] ({X17-d(βAsp)}-AL[NMeI][β3hP]-NH2; N-terminus assumed)	0.94	–
CC[C@H](C)[C@@H](C(=O)N1CCC[C@H]1C(N)=O)N(C)C(=O)[C@H](CC(C)C)NC(=O)[C@H](C)NC(=O)[C@H](CC(=O)O)NC(=O)[C@H](CC(=O)O)N(C)C(=O)CCCNC(=O)c1ccc(Oc2ccccc2)cc1 [Compound 125] ({Benzoyl(4-OPh)-GABA}-[NMeD]DAL[NMeI]P-NH2)	0.47	–
CNC(=O)c1ccc(Oc2ccc(C(=O)NCCCCCC(=O)N[C@@H](CCCCN)C(=O)N[C@@H](CC(=O)O)C(=O)N[C@@H](CCN)C(=O)N[C@@H](CC(C)C)C(=O)N(C)[C@@H](CCC(=O)O)C(=O)N3CCC[C@H]3CC(N)=O)cc2)cc1 [Compound 186] ({Benzoyl(4-O-C6H4-4-CONHMe)-Ahx}-KD[Dab]L[NMeE][β3hP]-NH2; N-terminus assumed)	2	–
CC[C@H](C)[C@@H](C(=O)N1CCC[C@H]1C(N)=O)N(C)C(=O)[C@H](CC(C)C)NC(=O)[C@H](CCN)NC(=O)[C@H](CC(=O)O)NC(=O)[C@H](CC(N)=O)NC(=O)CCCNC(=O)c1ccc(Oc2ccccc2)cc1 [Compound 107] ({Benzoyl(4-OPh)-GABA}-ND[Dab]L[NMeI]P-NH2; N-terminus assumed)	0.32	–
CC[C@H](C)[C@@H](C(=O)N1CCC[C@H]1CC(N)=O)N(C)C(=O)[C@H](CC(C)C)NC(=O)[C@H](CCN)NC(=O)[C@H](CC(=O)O)NC(=O)[C@H](CCCN)NC(=O)CCCNC(=O)c1ccc(Oc2ccccc2)cc1 [Compound 148] ({Benzoyl(4-OPh)-GABA}-[Orn]D[Dab]L[NMeI][β3hP]-NH2; N-terminus assumed)	0.48	–
CCNC(=O)c1ccc(Oc2ccc(C(=O)NCCCCC(=O)N[C@@H](CCCNC(=N)N)C(=O)N[C@@H](CC(=O)O)C(=O)N[C@@H](CCN)C(=O)N[C@@H](CC(C)C)C(=O)N(C)[C@@H](CCC(=O)O)C(=O)N3CCC[C@H]3CC(N)=O)cc2)cc1 [Compound 196] ({Benzoyl(4-(4-EtNHCO-PhO))-Ava}-RD[Dab]L[NMeE][β3hP]-NH2; N-terminus assumed)	1.7	–
CC[C@H](C)[C@@H](C(=O)N1CCC[C@H]1CC(N)=O)N(C)C(=O)[C@H](CC(C)C)NC(=O)[C@H](CCN)NC(=O)[C@H](CC(=O)O)NC(=O)[C@H](CC(N)=O)NC(=O)CCCNC(=O)c1ccc(Oc2ccccc2)cc1 [Compound 106]	–	IC50 [2]: 0.16 nM
CC[C@H](C)[C@@H](C(=O)N1CCC[C@H]1CC(N)=O)N(C)C(=O)[C@H](CC(C)C)NC(=O)[C@H](CCN)NC(=O)C[C@@H](NS(=O)(=O)c1ccc(NC(=O)c2ccc(OC)cc2)cc1)C(=O)O [Compound 694] ({Phenylsulfonyl(4-anisamido)-d(βAsp)}-[Dab]L[NMeI][β3hP]-NH2; N-terminus assumed)	0.094	–
CCNC(=O)c1ccc(Oc2ccc(C(=O)NCCCCC(=O)N[C@@H](CCCCN)C(=O)N[C@@H](CC(=O)O)C(=O)N[C@@H](CCN)C(=O)N[C@@H](CC(C)C)C(=O)N(C)[C@@H](CCC(=O)O)C(=O)N3CCC[C@H]3CC(N)=O)cc2)cc1 [Compound 192] ({Benzoyl(4-(4-EtNHCO-PhO))-Ava}-KD[Dab]L[NMeE][β3hP]-NH2; N-terminus assumed)	1.9	–
